The values that follow come from US4699928A, “Fluoroallylamine derivatives” (Merrell Dow Pharmaceuticals Inc., priority 1986, dated 1987).

For one series, the system named is MAO-A and MAO-B. The settings on record: cited from earlier work.
Series [1] deals with heart rate response to p-tyramine. Nature of the series: Cheese effect: potentiation of response to intravenous p-tyramine, pithed rats. In kind it is in vivo, male Sprague-Dawley rats. The settings on record: p-tyramine i.v. The method, then: (§1) The following test procedures can be employed to assess the potential of a compound of Formula I for producing the "cheese effect": […]
(§2) Eighteen hours later the animals are anaesthetized with pentobarbitone (60 mg/kg i.p.), in some instances pithed, and in all cases set up for recording heart rate and blood pressure by standard techniques.

For series [2] the following is noted: low dosages where preferential inhibition of MAO-B occurs; cited from earlier work.
The next series has as its system depression. The settings on record: in vivo; cited from earlier work.
Series [3] concerns heart rate response to p-tyramine. Nature of the series: Cheese effect: potentiation of response to intraduodenal p-tyramine, anaesthetized rats. In kind it is in vivo, male Sprague-Dawley rats. The settings on record: p-tyramine i.d. Here is the method: as §1, §2
The next series concerns MAO-B versus MAO-A. The series is described as follows: Selectivity of inhibition of MAO-B versus MAO-A in vitro (14C phenethylamine / 14C 5-hydroxytryptamine). The settings on record: rat, brain mitochondria. The format is biochemical. The method, then:
Mitochondria are prepared from rat brain by homogenation in phosphate buffer (0.1 M, pH 7.2) followed by differential centrifugation. The mitochondria are suspended in the same buffer, the test compound is added at the desired concentration, and the system is incubated. At different time intervals, aliquots are taken and MAO activity is measured using ^14 C p-tyramine (a mixed substrate) as the substrate (See A. Christmas et al., supra).
(C) The selectivity of a compound of Formula I with respect to inhibition of MAO-A and MAO-B can be determined by repeating the procedure of Part B and measuring the MAO activity using ^14 C 5-hydroxytryptamine (a preferred substrate for MAO-A) and ^14 C phenethylamine (a preferred substrate for MAO-B) as the substrate.

The subject of the next series is MAO. Nature of the series: Inhibition of MAO in vitro, partially purified rat brain mitochondria, 14C p-tyramine substrate. The format is biochemical. The settings on record: tested as hydrochloride salt. The text has this: Inhibition of MAO--In vitro testing
(A) The ability of a compound of Formula I to inhibit MAO can be determined in vitro by the method of A. Christmas et al., Br. J. Pharmacol., 45, 490 (1972) in partially purified mitochondria from rat brain using ^14 C p-tyramine as the substrate. The MAO inhibitory activity of a compound is expressed as the "IC50 " value, which is the molar concentration required to produce 50% inhibition of the enzyme.

Another series has as its system MAO-B. The settings on record: cited from earlier work.
For a further series, the system named is MAO-A. The settings on record: cited from earlier work.

Turning to `NNCCc1ccccc1` [phenelzine], the “preference in action upon MAO” value in the series on MAO-A and MAO-B is reported as “not preferential”.
Take `C#CCN(C)[C@H](C)Cc1ccccc1` [L-deprenyl, reference compound]: the “Potentiation of heart rate response to p-tyramine” value in series [1] (0.1 mg/kg) is 1.3 fold; in [1] (1.0 mg/kg), 2.2 fold; in series [3] (0.1 mg/kg, in words), “no effect”; in series [3] (1.0 mg/kg) it was 2.1 fold. Further, the cheese effect entry in series [2] is “not observed”. Moreover, in the series with depression, the clinical antidepressant effect result is listed as “clinically effective antidepressant agents”.
`CNC/C(=C/F)COc1ccc(Cl)cc1Cl` [N-methyl (Z)-2-(2',4'-dichlorophenoxy)methyl-3-fluoroallylamine]: the “Ratio B:A (inhibitory activity against MAO-B versus MAO-A)” value with MAO-B versus MAO-A amounted to 100.
Consider `NC/C(=C/F)CSc1ccccc1` [(Z)-2-thiophenoxymethyl-3-fluoroallylamine], for which the “Ratio B:A (inhibitory activity against MAO-B versus MAO-A)” value in the series with MAO-B versus MAO-A is listed as 1,000. For the same compound, the IC50 in the series with MAO was determined as 1 µM.
As for `NC/C(=C/F)CSc1ccc(F)cc1` [(Z)-2-(4'-fluorothiophenoxy) methyl-3-fluoroallylamine], the “Ratio B:A (inhibitory activity against MAO-B versus MAO-A)” value in the series with MAO-B versus MAO-A worked out at 100.
Still for that read-out and setting: next, `NC/C(=C\F)CSc1ccccc1` [(E)-2-thiophenoxymethyl-3-fluoroallylamine]: 100.
Turning to `Cc1cc(C(=O)NNCc2ccccc2)no1` [isocarboxazid], the “preference in action upon MAO” value with MAO-A and MAO-B was “not preferential”.
In the case of `C#CCN(C)Cc1ccccc1` [pargyline], in the series with MAO-A and MAO-B (lower versus higher dosages), the dose-dependence of selectivity result is reported as “selective inhibitors at lower dosages, but are not selective inhibitors at higher dosages”. Further, the “preferential inhibition of MAO-B” value with MAO-B is “MAO-B is preferentially inhibited”. Moreover, the clinical antidepressant effect result in the series on depression is “clinically effective antidepressant agents”. Further, the IC50 in the series with MAO is 2 µM.
Consider `C#CCN(C)CCCOc1ccc(Cl)cc1Cl` [clorgyline, reference compound], for which the “Potentiation of heart rate response to p-tyramine” value in series [1] (0.1 mg/kg) is 5.2 fold; in series [3] (0.1 mg/kg), 5.6 fold. In the series with MAO-A, the “preferential inhibition of MAO-A” value is listed as “MAO-A is preferentially inhibited”. Further, the clinical antidepressant effect result in the series with depression is “clinically effective antidepressant agents”. In the series on MAO, the IC50 stood at 0.01 µM.
On to `N[C@@H]1C[C@H]1c1ccccc1` (relative stereo) [tranylcypromine], for which the “preference in action upon MAO” value with MAO-A and MAO-B is recorded as “not preferential”.
As to `NC/C(=C/F)COc1ccccc1` [(Z)-2-phenoxymethyl-3-fluoroallylamine], in the series with MAO, the IC50 came out at 1 µM.

As usually defined, the IC50 is the point on the concentration scale where inhibition reaches its midpoint.
